Measured values as given in PubChem BioAssay (NCI).
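Values below derive from 48-hour exposures of cells grown in 96-well plates, with endpoints linearly interpolated between the two concentrations bracketing the appropriate inhibition level. The concentration for 50% growth inhibition is given as GI50. At the TGI there is no net growth.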

Tests used:
Assay in all cases: growth of human tumour cells (NCI), 48 h
OVCAR-4 ovarian = system: OVCAR-4 ovarian
NCI-H460 lung = system: NCI-H460 lung
ACHN renal = system: ACHN renal
A549 NSCLC = system: A549 NSCLC
HT29 colon = system: HT29 colon
HOP-62 NSCLC = system: HOP-62 NSCLC
HL-60(TB) leukemia = system: HL-60(TB) leukemia
OVCAR-8 ovarian = system: OVCAR-8 ovarian
PC-3 prostate = system: PC-3 prostate
IGROV1 ovarian = system: IGROV1 ovarian
SF-268 CNS = system: SF-268 CNS
NCI/ADR-RES ovarian = system: NCI/ADR-RES ovarian
MCF7 breast = system: MCF7 breast
HS 578T breast = system: HS 578T breast
SF-295 CNS = system: SF-295 CNS
SK-MEL-2 melanoma = system: SK-MEL-2 melanoma
TK-10 renal = system: TK-10 renal
MOLT-4 leukemia = system: MOLT-4 leukemia
COLO 205 colon = system: COLO 205 colon
HOP-92 NSCLC = system: HOP-92 NSCLC
EKVX NSCLC = system: EKVX NSCLC
SW-620 colon = system: SW-620 colon
OVCAR-3 ovarian = system: OVCAR-3 ovarian
BT-549 breast = system: BT-549 breast
KM12 colon = system: KM12 colon
UO-31 renal = system: UO-31 renal
NCI-H522 lung = system: NCI-H522 lung
NCI-H226 lung = system: NCI-H226 lung
A498 renal = system: A498 renal
DU-145 prostate = system: DU-145 prostate
MDA-MB-435 = system: MDA-MB-435
SK-OV-3 ovarian = system: SK-OV-3 ovarian
CAKI-1 renal = system: CAKI-1 renal
HCC-2998 colon = system: HCC-2998 colon
SNB-19 CNS = system: SNB-19 CNS
T-47D breast = system: T-47D breast
U251 CNS = system: U251 CNS
UACC-62 melanoma = system: UACC-62 melanoma
RPMI-8226 leukemia = system: RPMI-8226 leukemia
OVCAR-5 ovarian = system: OVCAR-5 ovarian
SF-539 CNS = system: SF-539 CNS
K-562 leukemia = system: K-562 leukemia
RXF 393 renal = system: RXF 393 renal
LOX IMVI melanoma = system: LOX IMVI melanoma
MALME-3M melanoma = system: MALME-3M melanoma
MDA-MB-231 breast = system: MDA-MB-231 breast
CCRF-CEM leukemia = system: CCRF-CEM leukemia
HCT-15 colon = system: HCT-15 colon
SNB-75 CNS = system: SNB-75 CNS
UACC-257 melanoma = system: UACC-257 melanoma
SR leukemia = system: SR leukemia
HCT-116 colon = system: HCT-116 colon
786-0 renal = system: 786-0 renal
M14 melanoma = system: M14 melanoma
SK-MEL-5 melanoma = system: SK-MEL-5 melanoma
SK-MEL-28 melanoma = system: SK-MEL-28 melanoma
SN12C renal = system: SN12C renal
NCI-H23 lung = system: NCI-H23 lung

Work on `NS(=O)(=O)N(c1cc(C(F)(F)F)cc(C(F)(F)F)c1)C1CCN(Cc2ccc(F)cc2)CC1` yielded a GI50 (OVCAR-4 ovarian) of 10.5 µM, a TGI (OVCAR-4 ovarian) of 22.2 µM and a GI50 (NCI-H460 lung) of 13.2 µM. It also gave a TGI (NCI-H460 lung) of 31 µM, a GI50 (ACHN renal) of 11.2 µM and a TGI (ACHN renal) of 23.3 µM. The GI50 (A549 NSCLC) was 12.4 µM, the TGI (A549 NSCLC) was 29.1 µM and the GI50 (HT29 colon) was 2.68 µM. The TGI (HT29 colon) was 7.51 µM, the GI50 (HOP-62 NSCLC) was 3.51 µM and the TGI (HOP-62 NSCLC) was 14.1 µM. It also gave a GI50 (HL-60(TB) leukemia) of 9.11 µM, a TGI (HL-60(TB) leukemia) of 28.6 µM and a GI50 (OVCAR-8 ovarian) of 15.5 µM. For the same compound, the TGI (OVCAR-8 ovarian) was 33.9 µM, the GI50 (PC-3 prostate) was 4.54 µM and the TGI (PC-3 prostate) was 17.6 µM. For the same compound, the GI50 (IGROV1 ovarian) was 4.89 µM, the TGI (IGROV1 ovarian) was 18 µM and the GI50 (SF-268 CNS) was 10.9 µM. It also gave a TGI (SF-268 CNS) of 22.9 µM, a GI50 (NCI/ADR-RES ovarian) of 6.72 µM and a TGI (NCI/ADR-RES ovarian) of 19.4 µM. The GI50 (MCF7 breast) was 5.44 µM, the TGI (MCF7 breast) was 18.5 µM and the GI50 (HS 578T breast) was 13.8 µM. For the same compound, the TGI (HS 578T breast) was 33.6 µM, the GI50 (SF-295 CNS) was 13.8 µM and the TGI (SF-295 CNS) was 27.7 µM. The GI50 (SK-MEL-2 melanoma) was 5.87 µM, the TGI (SK-MEL-2 melanoma) was 18.1 µM and the GI50 (TK-10 renal) was 12.2 µM. For the same compound, the TGI (TK-10 renal) was 25.4 µM, the GI50 (MOLT-4 leukemia) was 8.51 µM and the TGI (MOLT-4 leukemia) was 29.6 µM. It also gave a GI50 (COLO 205 colon) of 1.64 µM, a TGI (COLO 205 colon) of 3.08 µM and a GI50 (HOP-92 NSCLC) of 1.87 µM. It also gave a TGI (HOP-92 NSCLC) of 15.2 µM, a GI50 (EKVX NSCLC) of 11.2 µM and a TGI (EKVX NSCLC) of 23.8 µM. For the same compound, the GI50 (SW-620 colon) was 13.7 µM, the TGI (SW-620 colon) was 30.7 µM and the GI50 (OVCAR-3 ovarian) was 7.6 µM. It also gave a TGI (OVCAR-3 ovarian) of 20.4 µM, a GI50 (BT-549 breast) of 12.5 µM and a TGI (BT-549 breast) of 24.9 µM. The GI50 (KM12 colon) was 5.16 µM, the TGI (KM12 colon) was 17 µM and the GI50 (UO-31 renal) was 3.67 µM. For the same compound, the TGI (UO-31 renal) was 16.4 µM, the GI50 (NCI-H522 lung) was 3.52 µM and the TGI (NCI-H522 lung) was 13.4 µM. For the same compound, the GI50 (NCI-H226 lung) was 6.73 µM, the TGI (NCI-H226 lung) was 21.7 µM and the GI50 (A498 renal) was 12.3 µM. For the same compound, the TGI (A498 renal) was 26.1 µM, the GI50 (DU-145 prostate) was 13.5 µM and the TGI (DU-145 prostate) was 26.3 µM. For the same compound, the GI50 (MDA-MB-435) was 6.4 µM, the TGI (MDA-MB-435) was 19.7 µM and the GI50 (SK-OV-3 ovarian) was 10.9 µM. It also gave a TGI (SK-OV-3 ovarian) of 23.3 µM, a GI50 (CAKI-1 renal) of 7.21 µM and a TGI (CAKI-1 renal) of 20.4 µM. It also gave a GI50 (HCC-2998 colon) of 1.83 µM, a TGI (HCC-2998 colon) of 3.56 µM and a GI50 (SNB-19 CNS) of 14.3 µM. For the same compound, the TGI (SNB-19 CNS) was 27.8 µM, the GI50 (T-47D breast) was 2.74 µM and the TGI (T-47D breast) was 13.9 µM. For the same compound, the GI50 (U251 CNS) was 10.7 µM, the TGI (U251 CNS) was 24.5 µM and the GI50 (UACC-62 melanoma) was 12.7 µM. The TGI (UACC-62 melanoma) was 25.6 µM, the GI50 (RPMI-8226 leukemia) was 5.24 µM and the TGI (RPMI-8226 leukemia) was 22.3 µM. The GI50 (OVCAR-5 ovarian) was 10.9 µM, the TGI (OVCAR-5 ovarian) was 23.2 µM and the GI50 (SF-539 CNS) was 14.1 µM. For the same compound, the TGI (SF-539 CNS) was 27.6 µM, the GI50 (K-562 leukemia) was 3.68 µM and the TGI (K-562 leukemia) was 19 µM. It also gave a GI50 (RXF 393 renal) of 4.42 µM, a TGI (RXF 393 renal) of 16.6 µM and a GI50 (LOX IMVI melanoma) of 3.83 µM. The TGI (LOX IMVI melanoma) was 13.7 µM, the GI50 (MALME-3M melanoma) was 2.31 µM and the TGI (MALME-3M melanoma) was 9.5 µM. For the same compound, the GI50 (MDA-MB-231 breast) was 12.1 µM, the TGI (MDA-MB-231 breast) was 26.2 µM and the GI50 (CCRF-CEM leukemia) was 12 µM. It also gave a TGI (CCRF-CEM leukemia) of 36.3 µM, a GI50 (HCT-15 colon) of 7.3 µM and a TGI (HCT-15 colon) of 21.8 µM. For the same compound, the GI50 (SNB-75 CNS) was 13.2 µM, the TGI (SNB-75 CNS) was 25.9 µM and the GI50 (UACC-257 melanoma) was 11.5 µM. It also gave a TGI (UACC-257 melanoma) of 25.3 µM, a GI50 (SR leukemia) of 2.4 µM and a TGI (SR leukemia) of 9.02 µM. For the same compound, the GI50 (HCT-116 colon) was 7.38 µM, the TGI (HCT-116 colon) was 19.8 µM and the GI50 (786-0 renal) was 11.4 µM. For the same compound, the TGI (786-0 renal) was 23.5 µM, the GI50 (M14 melanoma) was 6.12 µM and the TGI (M14 melanoma) was 18.4 µM. The GI50 (SK-MEL-5 melanoma) was 3.44 µM, the TGI (SK-MEL-5 melanoma) was 12.7 µM and the GI50 (SK-MEL-28 melanoma) was 11.6 µM. It also gave a TGI (SK-MEL-28 melanoma) of 23.8 µM, a GI50 (SN12C renal) of 2.97 µM and a TGI (SN12C renal) of 11.6 µM. The GI50 (NCI-H23 lung) was 10.4 µM and the TGI (NCI-H23 lung) was 22.1 µM.
